The assay has as its target T1, MAGL (Homo sapiens, UniProt Q99685).
T1 sequence (Q99685 1-303): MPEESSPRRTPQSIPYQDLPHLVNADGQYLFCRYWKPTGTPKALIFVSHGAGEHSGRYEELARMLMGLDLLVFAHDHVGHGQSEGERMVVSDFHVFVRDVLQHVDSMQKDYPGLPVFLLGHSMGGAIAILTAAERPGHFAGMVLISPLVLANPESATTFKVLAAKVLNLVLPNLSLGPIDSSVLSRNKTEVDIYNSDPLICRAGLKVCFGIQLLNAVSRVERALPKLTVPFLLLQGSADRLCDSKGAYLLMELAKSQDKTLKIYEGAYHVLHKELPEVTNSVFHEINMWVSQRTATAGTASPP
Kind of assay: 2-AG assay: MAGL inhibition followed by hydrolysis of 2-arachidonoylglycerol to arachidonic acid, mass spectrometry. The assay is classed as biochemical. The following applies: measured in 2-AG assay (footnote [a]); substrate 2-arachidonoylglycerol 8 μM, 30 min at RT. From the text:
Alternatively, compounds were profiled for MAGL inhibitory activity by determining the enzymatic activity by following the hydrolysis of the natural substrate, 2-arachidonoylglycerol, resulting in arachidonic acid, which can be followed by mass spectrometry. This assay is hereinafter abbreviated “2-AG assay”.
Detection by mass spectrometry in the present 2-AG assay has the advantage over known optical assays that the natural enzyme substrate, 2-arachidonoylglycerol, can be used instead of structurally unrelated compounds needed for optical readouts (such as 4-NPA). It thereby delivers more relevant data for activity determination, reduces false positives and generally adds to data quality. In addition, this assay reduces the analysis time from about 10 minutes per sample with standard methods to under 10 seconds per sample. This allows for using the present 2-AG assay in a method for high throughput screening of compounds for their MAGL inhibitory activity.
The 2-AG assay was carried out in 384 well assay plates (PP, Greiner Cat #784201) in a total volume of 20 μL. Compound dilutions were made in 100% DMSO (VWR Chemicals 23500.297) in a polypropylene plate in 3-fold dilution steps to give a final concentration range in the assay from 12.5 μM to […]. 0.25 μL compound dilutions (100% DMSO) were added to 9 μL MAGL in assay buffer (50 mM TRIS (GIBCO, 15567-027), 1 mM EDTA (Fluka, 03690-100 mL), 0.01% (v/v) Tween. After shaking, the plate was incubated for 15 min at RT. To start the reaction, 10 μL 2-arachidonoylglycerol in assay buffer was added. The final concentrations in the assay was […] and 8 μM 2-arachidonoylglyerol. After shaking and 30 min incubation at RT, the reaction was quenched by the addition of 40 μL of acetonitrile containing 4 μM of d8-arachidonic acid. The amount of arachidonic acid was traced by an online SPE system (Agilent Rapidfire) coupled to a triple quadrupole mass spectrometer (Agilent 6460). A C18 SPE cartridge (G9205A) was used in an acetonitrile/water liquid setup. The mass spectrometer was operated in negative electrospray mode following the mass transitions 303.1→259.1 for arachidonic acid and 311.1→267.0 for d8-arachidonic acid. The activity of the compounds was calculated based on the ratio of intensities [arachidonic acid/d8-arachidonic acid].
In a preferred embodiment, the method for determining the MAGL inhibitory activity of a test compound according to the invention, comprises: • (i) providing a solution of a test compound; • (ii) adding the solution of step (i) to a solution of MAGL; • (iii) shaking the mixture obtained from step (ii); • (iv) incubating the mixture obtained from step (iii); • (v) adding a solution of 2-arachidonoylglycerol; • (vi) incubating the mixture obtained from step (v); • (vii) adding a solution of d8-arachidonic acid; and • (viii) determining the ratio of intensities arachidonic acid/d8-arachidonic acid using a mass spectrometer.

Compound `O=C1CO[C@H]2CCN(C(=O)N3CCC(C#Cc4ccccc4C(F)(F)F)CC3)C[C@H]2N1` [Example 192, (4aR,8aS)-6-(4-((2-(Trifluoromethyl)phenyl)ethynyl)piperidine-1-carbonyl)hexahydro-2H-pyrido[4,3-b][1,4]oxazin-3(4H)-one] registered an IC50 of 18 nM.

Turning to `O=C1CO[C@H]2CCN(C(=O)N3CC(C#Cc4ccccc4OC(F)(F)F)C3)C[C@H]2N1` [Example 170, (4aR,8aS)-6-[3-[2-[2-(Trifluoromethoxy)phenyl]ethynyl]azetidine-1-carbonyl]-4,4a,5,7,8,8a-hexahydropyrido[4,3-b][1,4]oxazin-3-one], the IC50 is 4 nM.

In turn, `COc1cccc(C#CC2CN(C(=O)N3CC[C@@H]4OCC(=O)N[C@@H]4C3)C2)c1C` [Example 183, (4aR,8aS)-6-[3-[2-(3-Methoxy-2-methylphenyl)ethynyl]azetidine-1-carbonyl]-4,4a,5,7,8,8a-hexahydropyrido[4,3-b][1,4]oxazin-3-one] had an IC50 of 11 nM.

With `Cc1cccc(C)c1C#CC1CCN(C(=O)N2CC[C@@H]3OCC(=O)N[C@@H]3C2)CC1` [Example 195, (4aR,8aS)-6-(4-((2,6-Dimethylphenyl)ethynyl)piperidine-1-carbonyl)hexahydro-2H-pyrido[4,3-b][1,4]oxazin-3(4H)-one], 25 nM corresponded to half-maximal inhibition (IC50).

`CS(=O)(=O)c1ccc(C#CC2CN(C(=O)N3CC[C@@H]4OCC(=O)N[C@@H]4C3)C2)cc1` [Example 186, (4aR,8aS)-6-[3-[2-(4-Methylsulfonylphenyl)ethynyl]azetidine-1-carbonyl]-4,4a,5,7,8,8a-hexahydropyrido[4,3-b][1,4]oxazin-3-one]: the IC50 stood at 753 nM.

With `COc1ccccc1C#CC1CN(C(=O)N2CC[C@@H]3OCC(=O)N[C@@H]3C2)C1` [Example 163, (4aR,8aS)-6-(3-((2-Methoxyphenyl)ethynyl)azetidine-1-carbonyl)hexahydro-2H-pyrido[4,3-b][1,4]oxazin-3(4H)-one], half-maximal inhibition (IC50) required 49 nM.

In turn, `O=C1CO[C@H]2CCN(C(=O)N3CC(CNC(c4ccccc4)C(F)(F)F)C3)C[C@H]2N1` (stereo partly drawn) [Example 71, (4aR,8aS)-6-(3-(((2,2,2-Trifluoro-1-phenylethyl)amino)methyl)azetidine-1-carbonyl)hexahydro-2H-pyrido[4,3-b][1,4]oxazin-3(4H)-one] had a half-maximal inhibitory concentration (IC50) of 105 nM.

As for `O=C1CO[C@H]2CCN(C(=O)N3CC(C#Cc4cccc(F)c4Cl)C3)C[C@H]2N1` [Example 172, (4aR,8aS)-6-(3-((2-Chloro-3fluorophenyl)ethynyl)azetidine-1-carbonyl)hexahydro-2H-pyrido[4,3-b][1,4]oxazin-3(4H)-one], the IC50 was 16 nM.

On to `O=C1CO[C@H]2CCN(C(=O)N3CC(C#Cc4cc(F)ccc4Cl)C3)C[C@H]2N1` [Example 185, (4aR,8aS)-6-[3-[2-(2-Chloro-5-fluorophenyl)ethynyl]azetidine-1-carbonyl]-4,4a,5,7,8,8a-hexahydropyrido[4,3-b][1,4]oxazin-3-one], for which half-maximal inhibition (IC50) was put at 36 nM.

Take `O=C1CO[C@H]2CCN(C(=O)N3CCC(C(NCc4cccc(C(F)(F)F)c4)C(F)(F)F)CC3)C[C@H]2N1` (stereo partly drawn) [Example 107, (4aR,8aS)-6-[4-[2,2,2-Trifluoro-1-[[3-(trifluoromethyl)phenyl]methylamino]ethyl]piperidine-1-carbonyl]-4,4a,5,7,8,8a-hexahydropyrido[4,3-b][1,4]oxazin-3-one]: half-maximal inhibition (IC50) was put at 55 nM.

Regarding `O=C1CO[C@H]2CCN(C(=O)N3CC(O)(C#Cc4ccccc4Cl)C3)C[C@H]2N1` [Example 190, (4aR,8aS)-6-[3-[2-(2-Chlorophenyl)ethynyl]-3-hydroxyazetidine-1-carbonyl]-4,4a,5,7,8,8a-hexahydropyrido[4,3-b][1,4]oxazin-3-one], the IC50 is 535 nM.

With `O=C1CO[C@H]2CCN(C(=O)N3CC(CNC(c4ccccc4Cl)C(F)(F)F)C3)C[C@H]2N1` (stereo partly drawn) [Example 70, (4aR,8aS)-6-(3-(((1-(2-Chlorophenyl)-2,2,2-trifluoroethyl)amino)methyl)azetidine-1-carbonyl)hexahydro-2H-pyrido[4,3-b][1,4]oxazin-3(4H)-one], half-maximal inhibition (IC50) required 12 nM.

`O=C1CO[C@H]2CCN(C(=O)N3CC(CS(=O)(=O)c4ccc(C(F)(F)F)cc4Cl)C3)C[C@H]2N1` [Example 152, (4aR,8aS)-6-[3-[[2-Chloro-4-(trifluoromethyl)phenyl]sulfonylmethyl]azetidine-1-carbonyl]-4,4a,5,7,8,8a-hexahydropyrido[4,3-b][1,4]oxazin-3-one] had an IC50 of 655 nM.

Turning to `O=C1CO[C@H]2CCN(C(=O)N3CC([S+]([O-])c4ccc(C(F)(F)F)cc4Cl)C3)C[C@H]2N1` (single isomer, unassigned) [Example 146], half-maximal inhibition (IC50) required 2720 nM.

Take `O=C1CO[C@H]2CCN(C(=O)N3CC(C#Cc4ccc(C(F)(F)F)cc4)C3)C[C@H]2N1` [Example 167, (4aR,8aS)-6-[3-[2-[4-(Trifluoromethyl)phenyl]ethynyl]azetidine-1-carbonyl]-4,4a,5,7,8,8a-hexahydropyrido[4,3-b][1,4]oxazin-3-one]: the IC50 stood at 10 nM.

For `O=C1CO[C@H]2CCN(C(=O)N3CC(C#Cc4ccc(C5(O)CC5)cc4)C3)C[C@H]2N1` [Example 180, (4aR,8aS)-6-[3-[2-[4-(1-Hydroxycyclopropyl)phenyl]ethynyl]azetidine-1-carbonyl]-4,4a,5,7,8,8a-hexahydropyrido[4,3-b][1,4]oxazin-3-one], the IC50 came to 38 nM.

`Cc1c(F)cccc1C#CC1CN(C(=O)N2CC[C@@H]3OCC(=O)N[C@@H]3C2)C1` [Example 168, (4aR,8aS)-6-[3-[2-(3-Fluoro-2-methylphenyl)ethynyl]azetidine-1-carbonyl]-4,4a,5,7,8,8a-hexahydropyrido[4,3-b][1,4]oxazin-3-one] gave an IC50 of 6 nM.

Compound `CN(C(=O)Cc1cc(C(F)(F)F)ccc1Cl)C1CCN(C(=O)N2CC[C@@H]3OCC(=O)N[C@@H]3C2)CC1` [Example 84, N-[1-[(4aR,8aS)-3-oxo-4,4a,5,7,8,8a-hexahydropyrido[4,3-b][1,4]oxazine-6-carbonyl]piperidin-4-yl]-2-[2-chloro-5-(trifluoromethyl)phenyl]-N-methylacetamide] returned an IC50 of 1140 nM.

Compound `O=C1CO[C@H]2CCN(C(=O)N3CC(C#Cc4cccc(Cl)c4)C3)C[C@H]2N1` [Example 165, (4aR,8aS)-6-[3-[2-(3-Chlorophenyl)ethynyl]azetidine-1-carbonyl]-4,4a,5,7,8,8a-hexahydropyrido[4,3-b][1,4]oxazin-3-one] showed an IC50 of 8 nM.

As for `O=C1CO[C@H]2CCN(C(=O)N3CC(C#Cc4csc(Cl)c4)C3)C[C@H]2N1` [Example 188, (4aR,8aS)-6-[3-[2-(5-Chlorothiophen-3-yl)ethynyl]azetidine-1-carbonyl]-4,4a,5,7,8,8a-hexahydropyrido[4,3-b][1,4]oxazin-3-one], the concentration for half-maximal inhibition (IC50) came out at 13 nM.

As to `O=C1CO[C@H]2CCN(C(=O)N3CC(SCc4c(F)cccc4C(F)(F)F)C3)C[C@H]2N1` [Example 295, (4aR,8aS)-6-(3-((2-Fluoro-6-(trifluoromethyl)benzyl)thio)azetidine-1-carbonyl)hexahydro-2H-pyrido[4,3-b][1,4]oxazin-3(4H)-one], the concentration for half-maximal inhibition (IC50) came out at 23 nM.

Compound `O=C1CO[C@H]2CCN(C(=O)N3CC(CNC(c4cccc(C(F)(F)F)c4)C(F)(F)F)C3)C[C@H]2N1` (stereo partly drawn) [Example 68, (4aR,8aS)-6-(3-(((2,2,2-Trifluoro-1-(3-(trifluoromethyl)phenyl)ethyl)amino)methyl)azetidine-1-carbonyl)hexahydro-2H-pyrido[4,3-b][1,4]oxazin-3(4H)-one] returned an IC50 of 18 nM.

One may read the IC50 as the midpoint of a concentration-inhibition curve. Higher therefore signals weaker potency in that assay.
